Data on one compound can be found in ChEMBL document CHEMBL4680187, “Optimization of EphA2 antagonists based on a lithocholic acid core led to the identification of UniPR505, a new 3α-carbamoyloxy derivative with antiangiogenetic properties” (Eur J Med Chem, 2020).

Structures are written as SMILES. pIC50: −log10 of the molar value. Activity calls are given as the source filed them. The rule behind the calls is not given here.

In test [1] the test system is Chorioallantoic membrane. Put plainly: Antiangiogenic activity in Leghorn chicken fertilized egg chorioallantoic membrane assessed as reduction in unstimulated neovascularization at 10 uM measured after 3 days by CAM assay. The conditions noted are these: Gallus gallus, time 3.0 day. Format: functional, tissue-based.
Test [2] concerns the target T1, Ephrin type-A receptor 6 (Mus musculus, UniProt Q62413).
T1 sequence (Q62413 whole entry): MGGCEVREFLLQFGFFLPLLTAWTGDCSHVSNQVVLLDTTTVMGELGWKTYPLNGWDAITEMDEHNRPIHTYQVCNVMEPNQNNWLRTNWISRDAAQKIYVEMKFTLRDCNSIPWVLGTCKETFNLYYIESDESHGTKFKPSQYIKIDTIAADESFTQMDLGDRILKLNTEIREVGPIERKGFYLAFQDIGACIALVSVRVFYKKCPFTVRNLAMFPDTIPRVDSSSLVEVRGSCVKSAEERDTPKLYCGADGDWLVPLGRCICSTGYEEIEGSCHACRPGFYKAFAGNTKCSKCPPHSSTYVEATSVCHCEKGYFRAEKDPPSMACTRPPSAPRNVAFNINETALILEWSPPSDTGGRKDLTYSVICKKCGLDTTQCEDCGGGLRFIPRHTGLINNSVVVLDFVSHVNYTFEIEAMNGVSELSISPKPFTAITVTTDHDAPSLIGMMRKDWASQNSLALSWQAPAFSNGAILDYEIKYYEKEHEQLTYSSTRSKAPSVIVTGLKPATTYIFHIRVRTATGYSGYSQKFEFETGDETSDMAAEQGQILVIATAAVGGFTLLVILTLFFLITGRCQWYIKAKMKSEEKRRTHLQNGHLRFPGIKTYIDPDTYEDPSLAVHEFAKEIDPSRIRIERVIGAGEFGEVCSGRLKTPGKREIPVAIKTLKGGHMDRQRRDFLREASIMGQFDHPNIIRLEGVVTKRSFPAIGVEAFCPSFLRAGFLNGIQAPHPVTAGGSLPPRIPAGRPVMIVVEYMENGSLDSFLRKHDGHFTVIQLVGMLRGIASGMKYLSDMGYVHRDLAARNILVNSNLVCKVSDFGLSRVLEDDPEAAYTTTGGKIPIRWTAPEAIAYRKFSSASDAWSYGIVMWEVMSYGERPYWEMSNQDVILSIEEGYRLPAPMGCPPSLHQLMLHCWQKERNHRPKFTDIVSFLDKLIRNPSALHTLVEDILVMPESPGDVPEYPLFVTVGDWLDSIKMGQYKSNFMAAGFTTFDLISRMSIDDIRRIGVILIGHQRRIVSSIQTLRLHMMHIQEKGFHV
Put plainly: Displacement of biotinylated ephrin-A1-Fc from mouse EphA6 Fc preincubated for 1 hr followed by ephrin-A1-FC addition and measured after 4 hrs by ELISA.

Test [3] deals with T2, Ephrin type-B receptor 2 (Mus musculus, UniProt P54763).
T2 sequence (P54763 whole entry): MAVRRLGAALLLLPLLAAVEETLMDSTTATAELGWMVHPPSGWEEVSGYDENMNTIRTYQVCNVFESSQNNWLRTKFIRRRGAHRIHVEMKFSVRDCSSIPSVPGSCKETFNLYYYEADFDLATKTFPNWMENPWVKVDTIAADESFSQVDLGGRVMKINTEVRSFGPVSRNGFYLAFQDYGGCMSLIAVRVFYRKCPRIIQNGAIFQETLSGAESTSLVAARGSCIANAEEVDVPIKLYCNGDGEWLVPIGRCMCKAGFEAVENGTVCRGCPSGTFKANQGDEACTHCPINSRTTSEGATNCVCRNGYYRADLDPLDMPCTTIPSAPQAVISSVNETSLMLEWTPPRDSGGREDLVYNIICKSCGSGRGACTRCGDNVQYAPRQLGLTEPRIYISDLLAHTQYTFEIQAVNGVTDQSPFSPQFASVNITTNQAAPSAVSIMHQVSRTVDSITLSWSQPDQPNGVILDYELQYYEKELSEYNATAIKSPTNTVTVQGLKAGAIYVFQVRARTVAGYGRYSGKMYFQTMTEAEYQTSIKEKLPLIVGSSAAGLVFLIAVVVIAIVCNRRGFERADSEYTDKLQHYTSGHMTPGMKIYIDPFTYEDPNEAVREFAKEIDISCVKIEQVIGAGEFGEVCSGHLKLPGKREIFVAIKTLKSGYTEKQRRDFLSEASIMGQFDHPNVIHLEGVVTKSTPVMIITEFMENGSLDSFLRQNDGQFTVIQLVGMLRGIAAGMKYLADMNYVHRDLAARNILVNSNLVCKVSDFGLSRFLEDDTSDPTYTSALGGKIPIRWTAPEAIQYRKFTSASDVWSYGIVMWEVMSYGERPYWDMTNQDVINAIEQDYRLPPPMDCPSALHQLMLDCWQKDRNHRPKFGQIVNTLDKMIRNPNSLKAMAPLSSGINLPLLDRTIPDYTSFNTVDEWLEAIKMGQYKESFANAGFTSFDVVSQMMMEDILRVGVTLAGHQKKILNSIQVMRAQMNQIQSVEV
Put plainly: Displacement of biotinylated ephrin-B1-Fc from mouse EphB2 Fc preincubated for 1 hr followed by ephrin-B1-FC addition and measured after 4 hrs by ELISA.

Test [4] has as its system Chorioallantoic membrane. Put plainly: Antiangiogenic activity in Leghorn chicken fertilized egg chorioallantoic membrane assessed as reduction in VEGF stimulated neovascularization at 10 uM measured after 3 days by CAM assay. Type of test: functional, tissue-based. The conditions noted are these: Gallus gallus, time 3.0 day.

For the compound `CCNC(=O)O[C@@H]1CC[C@@]2(C)[C@H](CC[C@@H]3[C@@H]2CC[C@]2(C)[C@@H]([C@H](C)CCC(=O)N[C@H](CC(=O)O)Cc4c[nH]c5ccccc45)CC[C@@H]32)C1`, the outcome in test [1] was inactive. Further, the negative-log IC50 (pIC50) was 4.74 in test [2] and 4.85 in test [3]. Also, in test [4], the outcome was Active.
